Laboratory results published in patent US10308689B2, “Dengue virus (DV) polypeptide sequences, T cell epitopes and methods and uses thereof” (LA JOLLA INSTITUTE FOR ALLERGY AND IMMUNOLOGY, priority 2010, dated 2019).
Ends that are not written are not given here.

Legend:
[1] = biological target: purified HLA molecules (corresponding predicted allele); experiment: MHC peptide-binding assay, summary over alleles; set-up: species or system human
[2] = system: PBMC of healthy adult blood donors from Colombo, Sri Lanka; experiment: Ex vivo IFNγ ELISPOT, HLA-matched PBMC of Sri Lankan blood donors; assay type: cell-based, human; set-up: Total Response per epitope: unit not given here; details: for # donors responded: number of donors responding to the epitope; for T cell response [SFC]: ex vivo IFNγ SFC/10^6 PBMC; for # of responders: responding donors, HLA allele(s)
[3] = IFNγ ELISPOT response summed over responding donors, per epitope
[4] = HLA-matched PBMC, proteome-wide screen
[5] = HLA allele, supertype and serotype
[6] = summed IFNγ ELISPOT response per epitope, HLA allele and serotype as given
[7] = restricting HLA allele and serotype as given
[8] = total over responding donors, restricting HLA allele and serotype as given

| Compound | Total Response per epitope [2, 3] | # donors responded [2, 4] | # donors responded [2, 7] | Total Response per epitope [2, 8] | other results |
| --- | --- | --- | --- | --- | --- |
| QYIFTGQPL | 138.3 | 1 |  |  | IC50 ([1]; allele A*2402): 271 nM |
| YENLKYSVI |  |  |  |  | IC50 ([1]; allele B*4402): 90 nM; # donors responded [2, 5]: 1; Total Response per epitope [2, 6]: 381.7 |
| CC(C)[C@H](NC(=O)[C@H](CCC(=O)O)NC(=O)[C@H](Cc1ccc(O)cc1)NC(=O)[C@H](CO)NC(=O)CNC(=O)[C@H](Cc1c[nH]cn1)NC(=O)[C@H](Cc1ccc(O)cc1)NC(=O)[C@H](C)NC(=O)[C@@H](N)Cc1c[nH]c2ccccc12)C(=O)O |  |  |  |  | IC50 ([1]; allele B*5101): 11 nM; # donors responded [2, 5]: 1; Total Response per epitope [2, 6]: 25.0 |
| DPASIAARGY |  |  | 9 | 2383.3 | IC50 ([1]; allele B*3501): 5620 nM; T cell response [SFC] ([2]; per epitope): 2383 SFC; # of responders [2]: 9 |
| TPPGSRDPF |  |  |  |  | IC50 ([1]; allele B*3501): 161 nM; # donors responded [2, 5]: 7; Total Response per epitope [2, 6]: 1416.7 |
| CC(C)C[C@H](NC(=O)[C@H](CCC(N)=O)NC(=O)[C@@H](NC(=O)[C@H](Cc1ccc(O)cc1)NC(=O)[C@@H](N)C(C)C)[C@@H](C)O)C(=O)N[C@@H](CS)C(=O)N[C@@H](CC(=O)O)C(=O)N[C@@H](Cc1c[nH]cn1)C(=O)N[C@@H](CCCNC(=N)N)C(=O)O |  |  |  |  | IC50 ([1]; allele A*3301): 1900 nM; # donors responded [2, 5]: 1; Total Response per epitope [2, 6]: 35.0 |
| RAAVEDEEF | 381.7 | 1 |  |  | IC50 ([1]; allele B*5801): 866 nM |
| VPLLAIGCY |  |  |  |  | IC50 ([1]; allele B*3501): 168 nM; # donors responded [2, 5]: 7; T cell response [SFC] ([2]; per epitope): 1520 SFC; # of responders [2]: 7; Total Response per epitope [2, 6]: 1520.0 |
| CSCC[C@H](NC(=O)[C@H](CCC(N)=O)NC(=O)[C@@H](N)CCCNC(=N)N)C(=O)N[C@@H](CCC(=O)O)C(=O)NCC(=O)N[C@@H](CCC(=O)O)C(=O)NCC(=O)N[C@H](C(=O)N[C@@H](CC(C)C)C(=O)O)C(C)C | 56.7 | 1 |  |  | IC50 ([1]; allele B*1501): 19 nM |
| CC[C@H](C)[C@H](NC(=O)[C@H](CCC(N)=O)NC(=O)[C@@H](N)CCCCN)C(=O)N[C@@H](C)C(=O)N[C@@H](CC(N)=O)C(=O)N[C@@H](CCC(=O)O)C(=O)N[C@@H](CC(C)C)C(=O)N[C@@H](CC(N)=O)C(=O)N[C@@H](Cc1ccc(O)cc1)C(=O)O |  |  | 1 | 26.7 | IC50 ([1]; allele B*1501): 9 nM |
| KVRKDIQQW | 38.3 | 1 |  |  | IC50 ([1]; allele B*5701): 15 nM |
| MEITAEWLW | 583.3 | 1 |  |  | IC50 ([1]; allele B*5801): 5 nM; T cell response [SFC] ([2]; per epitope): 583 SFC; # of responders [2]: 1 |
| CC[C@H](C)[C@H](NC(=O)[C@@H]1CCCN1C(=O)CNC(=O)[C@@H](NC(=O)[C@H](C)N)[C@@H](C)O)C(=O)N[C@@H](CO)C(=O)N[C@H](C(=O)N[C@@H](CC(C)C)C(=O)N[C@@H](Cc1c[nH]c2ccccc12)C(=O)O)[C@@H](C)O |  |  | 2 | 235.5 | IC50 ([1]; allele B*5801): 1 nM; T cell response [SFC] ([2]; per epitope): 236 SFC; # of responders [2]: 2 |
| CC(C)C[C@H](NC(=O)[C@@H](NC(=O)[C@H](Cc1c[nH]c2ccccc12)NC(=O)[C@H](C)NC(=O)[C@H](CO)NC(=O)[C@H](C)NC(=O)[C@@H]1CCCN1C(=O)[C@@H](N)Cc1c[nH]cn1)[C@@H](C)O)C(=O)N[C@@H](Cc1ccc(O)cc1)C(=O)O |  |  | 3 | 281.7 | IC50 ([1]; allele B*3501): 6 nM |
| WHYDQDHPY |  |  |  |  | IC50 ([1]; allele B*3501): 7600 nM |
| CC[C@H](C)[C@H](NC(=O)CNC(=O)[C@H](CCC(=O)O)NC(=O)[C@@H]1CCCN1C(=O)[C@@H](N)[C@@H](C)O)C(=O)N[C@H](C(=O)N1CCC[C@H]1C(=O)N[C@@H](CO)C(=O)N[C@@H](CCSC)C(=O)O)[C@@H](C)CC | 2716.7 | 5 |  |  | IC50 ([1]; allele B*3501): 8 nM; T cell response [SFC] ([2]; per epitope): 2717 SFC; # of responders [2]: 5 |

| Compound | Total Response per epitope [2, 3] | # donors responded [2, 4] | # donors responded [2, 7] | Total Response per epitope [2, 8] | other results |
| --- | --- | --- | --- | --- | --- |
| CC[C@H](C)[C@H](NC(=O)CNC(=O)[C@H](CCC(=O)O)NC(=O)CNC(=O)[C@H](CCC(=O)O)NC(=O)[C@H](CCSC)NC(=O)[C@H](CCC(N)=O)NC(=O)[C@@H](N)CCCNC(=N)N)C(=O)N[C@@H](Cc1ccccc1)C(=O)O | 108.3 | 1 |  |  | IC50 ([1]; allele B*1501): 6 nM |
| MALSIVSLF |  |  | 1 | 48.3 | IC50 ([1]; allele B*5101): 605 nM |
| CC[C@H](C)[C@H](NC(=O)[C@@H]1CCCN1C(=O)CNC(=O)[C@@H](NC(=O)[C@H](C)N)[C@@H](C)O)C(=O)N[C@@H](CC(C)C)C(=O)N[C@H](C(=O)N[C@@H](CC(C)C)C(=O)N[C@@H](Cc1c[nH]c2ccccc12)C(=O)O)[C@@H](C)O |  |  | 2 | 938.3 | IC50 ([1]; allele B*5801): 13 nM; T cell response [SFC] ([2]; per epitope): 938 SFC; # of responders [2]: 2 |
| CSCC[C@H](NC(=O)[C@@H](NC(=O)[C@H](Cc1c[nH]cn1)NC(=O)[C@H](Cc1ccccc1)NC(=O)[C@@H](NC(=O)CNC(=O)[C@H](CCC(=O)O)NC(=O)[C@@H](N)CCSC)C(C)C)[C@@H](C)O)C(=O)N[C@@H](Cc1c[nH]c2ccccc12)C(=O)O |  |  |  |  | IC50 ([1]; allele B*4403): 3 nM |
| MALKDFKEF |  |  |  |  | IC50 ([1]; allele B*3501): 77 nM |
| CSCC[C@H](N)C(=O)N1CCC[C@H]1C(=O)N[C@H](C(=O)N[C@H](C(=O)N[C@@H](Cc1c[nH]cn1)C(=O)N[C@@H](CO)C(=O)N[C@@H](CO)C(=O)N[C@@H](C)C(=O)N[C@@H](C)C(=O)N[C@@H](CCC(N)=O)C(=O)O)[C@@H](C)O)C(C)C | 183.3 | 2 |  |  |  |
| TLMAMDLGEL | 823.3 | 1 |  |  |  |
| CC[C@H](C)[C@H](NC(=O)[C@H](CC(C)C)NC(=O)[C@H](C)NC(=O)[C@H](CC(C)C)NC(=O)[C@H](CC(C)C)NC(=O)[C@@H](N)CCSC)C(=O)N[C@@H](C)C(=O)N[C@H](C(=O)N[C@@H](CC(C)C)C(=O)O)C(C)C | 81.7 | 1 |  |  |  |
| EERDIPERSW |  |  | 1 | 133.3 |  |
| CC(C)C[C@H](NC(=O)[C@@H](NC(=O)[C@H](C)NC(=O)[C@H](CCC(=O)O)NC(=O)CNC(=O)[C@H](CCC(N)=O)NC(=O)[C@@H](NC(=O)[C@@H]1CCCN1C(=O)[C@@H](N)CS)[C@@H](C)O)[C@@H](C)O)C(=O)O |  |  | 1 | 295.0 |  |
| CSCC[C@H](NC(=O)[C@H](Cc1ccc(O)cc1)NC(=O)[C@@H](N)CCCNC(=N)N)C(=O)NCC(=O)N[C@@H](CCC(=O)O)C(=O)N[C@@H](CC(=O)O)C(=O)NCC(=O)N[C@@H](CS)C(=O)N[C@@H](Cc1c[nH]c2ccccc12)C(=O)N[C@@H](Cc1ccc(O)cc1)C(=O)O | 66.7 | 1 |  |  |  |
| DPRRCLKPV |  |  | 2 | 556.7 |  |
| RASFIEVKTC | 290.0 | 2 |  |  |  |
| CC[C@H](C)[C@H](N)C(=O)N1CCC[C@H]1C(=O)N[C@@H](CCSC)C(=O)N[C@@H](CO)C(=O)N[C@H](C(=O)N[C@@H](Cc1ccc(O)cc1)C(=O)NCC(=O)N[C@@H](Cc1c[nH]c2ccccc12)C(=O)N[C@@H](CC(N)=O)C(=O)N[C@@H](CC(C)C)C(=O)O)[C@@H](C)O |  |  | 3 | 320.0 |  |
| LMMILPAAL | 46.7 | 1 |  |  |  |
| CC(C)C[C@H](NC(=O)CNC(=O)[C@H](C)NC(=O)CNC(=O)[C@H](C)NC(=O)[C@H](CC(C)C)NC(=O)[C@@H](N)Cc1ccc(O)cc1)C(=O)N[C@@H](C)C(=O)N[C@@H](Cc1ccccc1)C(=O)O |  |  |  |  | # donors responded [2, 5]: 3; Total Response per epitope [2, 6]: 340.0 |
